Patent US10045987B2, “Imidazoyl anilide derivatives and methods of use” (Codexis, Inc., priority 2014, dated 2018)

Assays:
[1] = test system: K562 lymphoblast cell line; assay: K562 cytotoxicity assay at RBC, Cell Titer-Glo 2.0, 72 hours; format: cell-based; settings: class relative to nilotinib
Procedure: In this Example, experiments conducted at RBC to assess the cytotoxicity of nilotinib and compounds 14, 17, 19, 21, and 22 (i.e., test compounds) are described. All of the test compounds were kept between 4° C. to 8° C. in solid form or as solution in DMSO.
The cell line K562 was obtained from the ATCC. Test compounds were dissolved in DMSO (1 mM stock). Cell Titer-Glo® 2.0 Luminescent cell viability assay reagent was obtained from Promega. K562 lymphoblast cell line was cultured in Iscove's Modified Dulbecco's medium supplemented with 10% FBS. 100 μg/ml penicillin and 100 μg/ml streptomycin were added to all culture media. Cultures were maintained at 37° C. in a humidified atmosphere of 5% CO2 and 95% air. Test compounds in DMSO were added in a source plate. 25 nL of test compounds was delivered from the source plate to each well of the 384-well cell culture plates by Echo 550. 25 μl of culture medium containing 1000 cells for each cell line was added to the wells of the cell culture plates. Cells were incubated with test compounds at 37° C., 5% CO2 for 72 hours. 25 μl of Cell Titer Glo 2.0 reagent was added to each well. The contents were mixed on an orbital shaker for 2 minutes and incubated at room temperature for 10 minutes to stabilize luminescent signal. Luminescence was recorded by Envision 2104 Multilabel Reader (PerkinElmer). The number of viable cells in culture was determined based on quantization of the ATP present in each culture well. The IC50 values were calculated and the IC50 curves were plotted using the GraphPad Prism 4 program based on a sigmoidal dose-response equation.

[2] = test system: K-562 cells; assay: K-562 cytotoxicity assay, CellTiter 96 Aqueous One, 72 hours; settings: for K-562 IC50: 72 hours, CellTiter 96, class relative to nilotinib
[3] = biological target: PDGFRα[h] (Homo sapiens, UniProt P16234); assay: biochemical
Procedure: (§1) The assays were performed at Merck-Milliore, using their standard assay protocols

[4] = biological target: hERG potassium channels (Homo sapiens, UniProt Q12809)
Procedure: CHO cells stably expressing hERG potassium channels obtained from Aviva BioSciences were used for this test.
Visual check for precipitation was conducted before testing.
The hERG QPatchHTX assay was conducted at room temperature. The whole-cell protocols, voltage protocols and application protocols were established with QPatch Assay Software 5.0 (Sophion).

[5] = biological target: T1, Flt1[h] (Homo sapiens, UniProt P17948); assay: Flt1 kinase assay at Merck-Milliore (standard protocol); format: biochemical
T1 construct: purchased Merck-Milliore (contract assay service)
Procedure: as §1

[6] = biological target: T2, cKit[h] (Homo sapiens, UniProt P10721); assay: cKit kinase assay at Merck-Milliore (standard protocol); format: biochemical
T2 construct: purchased Merck-Milliore (contract assay service)
Procedure: as §1

[7] = biological target: T3, cSRC (Homo sapiens, UniProt P12931); assay: cSRC kinase assay at Merck-Milliore (standard protocol); format: biochemical
T3 construct: purchased Merck-Milliore (contract assay service)
Procedure: as §1

Compound	K-562 IC50 (RBC) [1]	K-562 IC50 [2]	hERG inhibition compared with Nilotinib [4]	other results
Cc1ccc(C(=O)Nc2cc(-n3cnc(CNCC(=O)O)c3)cc(C(F)(F)F)c2)cc1Nc1nccc(-c2cccnc2)n1 [Compound 21]	− (IC50 more than 25% great than IC50 for nilotinib)	–	–	–
Cc1ccc(C(=O)Nc2cc(-n3cnc(CO)c3)cc(C(F)(F)F)c2)cc1Nc1nccc(-c2cccnc2)n1 [Compound 2, N-[3-[4-(hydroxymethyl)imidazol-1-yl]-5-(trifluoromethyl)phenyl]-4-methyl-3-[[4-(3-pyridyl)pyrimidin-2-yl]amino]benzamide]	–	++ (IC50 more than 25% smaller than IC50 for nilotinib)	less inhibiting to hERG than Nilotinib	IC50 [3]: 1900 nM; hERG IC50 (μM) [4]: +; IC50 [5]: 1100 nM; IC50 [6]: 1300 nM; IC50 [7]: 1300 nM
Cc1ccc(C(=O)Nc2cc(-n3cnc(COC(=O)C4CC4)c3)cc(C(F)(F)F)c2)cc1Nc1nccc(-c2cccnc2)n1 [Compound 11]	–	++ (IC50 more than 25% smaller than IC50 for nilotinib)	less inhibiting to hERG than Nilotinib	–
Cc1cn(-c2cc(NC(=O)c3ccc(C)c(Nc4nccc(-c5cccnc5)n4)c3)cc(C(F)(F)F)c2)cn1 [Compound 1, 4-methyl-N-[3-(4-methyl-1H-imidazol-1-yl)-5-(trifluoromethyl)phenyl]-3-[(4-pyridin-3-ylpyrimidin-2-yl)amino]benzamide, reference compound]	+	+	–	–
COC(=O)CNCc1cn(-c2cc(NC(=O)c3ccc(C)c(Nc4nccc(-c5cccnc5)n4)c3)cc(C(F)(F)F)c2)cn1 [Compound 22]	− (IC50 more than 25% great than IC50 for nilotinib)	–	–	–
Cc1ccc(C(=O)Nc2cc(-n3cnc(COC(N)=O)c3)cc(C(F)(F)F)c2)cc1Nc1nccc(-c2cccnc2)n1 [Compound 12]	–	+++ (IC50 more than 75% great than IC50 for nilotinib)	less inhibiting to hERG than Nilotinib	IC50 ([2]; Homo sapiens, K562, 72 h, read-out: K-562 IC50): < 1 nM
